We go through one compound from publication PMC10870240 (Chembiochem : a European journal of chemical biology, 2023).

Each structure is given as a SMILES string.

The assay concerns the target full-length CBP (Homo sapiens, UniProt Q92793). The experiment in a line: cellular thermal shift assay. It is filed as biochemical. Conditions: 25 μM garcinolic acid, MV4-11 nuclear extract.

Chain of full-length CBP (Q92793 2-2442): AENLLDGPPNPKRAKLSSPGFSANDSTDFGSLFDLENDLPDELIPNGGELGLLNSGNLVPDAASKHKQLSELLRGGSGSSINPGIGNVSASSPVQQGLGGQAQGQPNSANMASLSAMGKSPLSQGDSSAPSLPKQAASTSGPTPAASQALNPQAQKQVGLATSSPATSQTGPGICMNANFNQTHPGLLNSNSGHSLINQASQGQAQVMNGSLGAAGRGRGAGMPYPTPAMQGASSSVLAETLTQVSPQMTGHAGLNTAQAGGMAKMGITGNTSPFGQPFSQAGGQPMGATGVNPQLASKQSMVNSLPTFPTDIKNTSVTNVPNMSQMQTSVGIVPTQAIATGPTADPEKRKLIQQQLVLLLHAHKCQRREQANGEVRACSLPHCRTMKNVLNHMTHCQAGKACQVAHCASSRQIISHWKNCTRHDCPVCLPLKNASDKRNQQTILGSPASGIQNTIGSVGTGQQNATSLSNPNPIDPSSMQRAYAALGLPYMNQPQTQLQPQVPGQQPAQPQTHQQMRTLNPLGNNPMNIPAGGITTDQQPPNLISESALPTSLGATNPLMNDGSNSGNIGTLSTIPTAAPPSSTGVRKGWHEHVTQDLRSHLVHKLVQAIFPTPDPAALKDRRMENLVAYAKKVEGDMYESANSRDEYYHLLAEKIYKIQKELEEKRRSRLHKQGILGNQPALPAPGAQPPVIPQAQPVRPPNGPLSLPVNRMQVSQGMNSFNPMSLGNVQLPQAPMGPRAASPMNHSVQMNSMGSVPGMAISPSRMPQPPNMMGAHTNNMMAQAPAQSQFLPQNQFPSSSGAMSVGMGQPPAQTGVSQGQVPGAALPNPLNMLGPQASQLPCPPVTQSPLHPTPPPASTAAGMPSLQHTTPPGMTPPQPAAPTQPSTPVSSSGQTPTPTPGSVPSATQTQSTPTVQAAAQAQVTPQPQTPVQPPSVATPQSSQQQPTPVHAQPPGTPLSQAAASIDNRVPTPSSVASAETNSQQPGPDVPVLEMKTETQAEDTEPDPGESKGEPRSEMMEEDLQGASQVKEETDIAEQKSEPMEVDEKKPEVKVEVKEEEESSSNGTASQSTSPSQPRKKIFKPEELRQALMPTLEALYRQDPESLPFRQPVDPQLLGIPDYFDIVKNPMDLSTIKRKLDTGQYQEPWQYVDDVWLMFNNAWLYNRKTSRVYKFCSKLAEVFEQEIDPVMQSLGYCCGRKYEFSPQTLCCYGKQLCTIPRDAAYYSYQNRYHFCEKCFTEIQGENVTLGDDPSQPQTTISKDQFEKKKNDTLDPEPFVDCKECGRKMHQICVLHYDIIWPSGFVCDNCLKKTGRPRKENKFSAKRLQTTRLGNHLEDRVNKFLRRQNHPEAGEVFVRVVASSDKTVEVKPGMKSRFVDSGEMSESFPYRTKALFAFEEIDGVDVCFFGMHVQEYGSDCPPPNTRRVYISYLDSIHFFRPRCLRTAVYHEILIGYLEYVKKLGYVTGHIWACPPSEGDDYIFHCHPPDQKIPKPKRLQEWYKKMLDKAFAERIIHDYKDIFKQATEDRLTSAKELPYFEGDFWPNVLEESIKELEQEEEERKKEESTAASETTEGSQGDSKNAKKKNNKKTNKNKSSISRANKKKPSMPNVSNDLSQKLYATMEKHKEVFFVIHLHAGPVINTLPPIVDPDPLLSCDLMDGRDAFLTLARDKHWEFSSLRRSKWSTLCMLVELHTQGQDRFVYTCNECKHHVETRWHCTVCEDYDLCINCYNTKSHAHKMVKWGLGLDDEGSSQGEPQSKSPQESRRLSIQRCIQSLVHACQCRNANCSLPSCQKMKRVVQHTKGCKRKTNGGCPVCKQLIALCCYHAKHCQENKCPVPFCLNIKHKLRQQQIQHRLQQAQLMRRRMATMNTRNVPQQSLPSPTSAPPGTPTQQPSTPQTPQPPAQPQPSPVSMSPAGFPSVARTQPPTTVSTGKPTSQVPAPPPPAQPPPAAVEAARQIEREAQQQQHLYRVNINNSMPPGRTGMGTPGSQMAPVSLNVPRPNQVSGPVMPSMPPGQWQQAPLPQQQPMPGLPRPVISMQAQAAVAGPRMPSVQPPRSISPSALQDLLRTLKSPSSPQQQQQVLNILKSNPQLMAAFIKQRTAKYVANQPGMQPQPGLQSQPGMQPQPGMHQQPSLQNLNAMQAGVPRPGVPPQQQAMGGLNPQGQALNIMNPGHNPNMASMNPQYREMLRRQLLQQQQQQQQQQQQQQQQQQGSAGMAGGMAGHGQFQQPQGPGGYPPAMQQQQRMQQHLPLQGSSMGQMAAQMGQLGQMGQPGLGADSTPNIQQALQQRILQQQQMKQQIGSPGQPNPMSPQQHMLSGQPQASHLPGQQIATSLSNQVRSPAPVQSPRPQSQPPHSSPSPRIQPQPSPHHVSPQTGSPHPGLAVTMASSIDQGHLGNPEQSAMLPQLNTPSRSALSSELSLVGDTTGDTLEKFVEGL

Turning to `CC(C)=CCCC1(C)C=Cc2c(O)c3c(c(CC=C(C)C)c2O1)OC12C(=CCCC1C(C)(C)O[C@@]2(C/C=C(\C)C(=O)O)C(=O)O)C3=O` (stereo partly shown) [garcinolic acid], the “cellular thermal shift assay (Western blot)” value is given as “intact CBP is still observed in the garcinolic acid treated samples”.
